From patent US6403647B1, “Pulsed administration of compositions for the treatment of blood disorders” (priority 1996, dated 2002)

How the values were obtained:
Friend leukemia cells = details: cultured Friend leukemia cells; cited from earlier work
[1] = Apoptosis (fragmented DNA stain) of circulating erythroblasts, Hb-E beta thalassemia patient; type: in vivo, human
Excerpt: Peripheral blood from a patient with Hb-E beta thalassemia has 1200 NRBCs per 100 white blood cells which allows for rapid monitoring for apoptosis. […] A plateau or even a decline in hematologic response has been observed when butyrate therapy is given continuously.

[2] = Continuous butyrate therapy in a child with beta thalassemia; type: in vivo, human
Excerpt: Treatment period, the ten month duration of butyrate therapy, is shown between the vertical lines.

[3] = Globin chain synthesis at varied butyrate infusion rates in patients; type: in vivo, human; details: infusion at 150 mg per kg per hour; baseline 0.6
Description: Infusion rates were varied between 20 to 150 mg per kg per hour in several patients who have large proportions of circulating nucleated erythroblasts. Globin chain synthesis was assayed at different time points before and following drug infusions.

[4] = Weekly then pulse butyrate in a patient with β° thalassemia; type: in vivo, human
Description: A plateau or even a decline in hematologic response has been commonly observed when butyrate therapy is given continuously. This is illustrated in a patient with β° thalassemia, who responded to weekly butyrate treatment with an increase in fetal globin synthesis and improved globin chain balance from 0.5 to 0.85 non-α to α-globin chain ratios (FIG. 8). A 3-fold increase in γ globin mRNA was detected 24-36 hours after therapy. A 1-1.5 gram/dl rise in total hemoglobin followed the increase in […] synthesis and mRNA, but total Hgb then plateaued and even declined slightly (solid line). A decline in ferritin is also frequently observed (lower panel), even though the patient received single daily supplements.
When therapy was decreased to shorter pulses for 2-3 days on alternate weeks, total hemoglobin rose another 2 grams/dl. Increased iron supplements were required to support the active erythropoiesis, despite the presence of iron overload.
The therapeutic rise in total hemoglobin plateaued or declined on weekly therapy. With a change to pulse therapy, shown by the curved arrow, there was a further rise in total Hgb to 9.6 gm/dl, a level that no longer requires transfusions.
A three fold increase in γ globin mRNA was detected 24 to 36 hours after therapy.
A 1.0 to 1.5 gram per deciliter rise in total hemoglobin followed the increase in γ globin mRNA synthesis for 30 to 50 days, but total Hgb plateaued and even declined slightly (FIG. 8). A decline in ferritin was also frequently observed (FIG. 10) even though the patient received single daily supplements.
Increased iron supplements were required to support active erythropoiesis, despite the iron overload (FIG. 10).

[5] = Platelet counts in baboon with pulse administration; type: in vivo; details: increased from 240,000
γ globin mRNA = details: continuous intravenous administration; cited from earlier work
[6] = system: K562 human erythroleukemia cells; details: cited from earlier work
[7] = Total hemoglobin in phlebotomized anemic baboons, continuous versus pulse therapy; type: in vivo, baboon
Description: Therapy was administered to anemic baboons who were being phlebotomized 5-10 ml/kg of blood per day on a continuous basis. EPO was administered daily at 300 U/kg/dose. Arginine butyrate was administered daily at 700 mg/kg/day for 5 days and phenoxyacetic acid at 500 mg/kg/day daily over 8 hours and at 1000 mg/kg/day for 24 hours/day daily for five days each. […] With continuous arginine butyrate treatment, hemoglobin remained essentially stable at 6.7 to 6.9 gram/dl. With continuous treatment with phenoxyacetic acid, hemoglobin levels remained stable at 7.0 gram/dl to 6.9 gram/dl during 8 hour therapy and declined from 6.8 to 4.5 when the drug was given for 24 hours per day for 5 days.

fetal globin [8] = experiment: Fetal globin production in erythroid progenitor colonies (Bfu-e), sickle cell anemia patient; type: cell-based, human; details: controls 48% of non-α globin
human fetal liver cells = experiment: Erythroid progenitor colony proliferation, fetal liver cells; type: cell-based; details: 0.2 mM, maximal growth factors, p<0.025
Description: In a third experiment, human fetal liver cells were also tested. As fetal cells are known not to respond to the presence of the growth factors, any increases observed are highly significant. Erythroid progenitor cultures were established from fetal liver and plated with maximal amounts of growth factors. To these plates were added; lane 1, 2-(4′-methoxyphenoxy) propionic acid; lane 2, phenoxyacetic acid; and lane 3, α-methylhydrocinnamic acid; all at a concentration of 0.2 mM.

[9] = system: system A transport of amino acids; experiment: Uptake of 3H-methyl-aminoisobutyric acid (MeAIB) into erythroblasts; type: cell-based
Description: Erythroblasts were tested for alterations in uptake of radio-labelled amino acid (^3H-methyl-aminoisobutyric acid; MeAIB) in the presence of AB (arginine butyrate), AMHCA (α-methylhydrocinnamic acid), PAA (phenoxyacetic acid), and IBT (isobutyramide), each at 2.0 mM.

Bfu-e = experiment: Erythroid colony (Bfu-e) proliferation with maximal growth factors, normal subject; type: cell-based, human; details: 0.2-0.5 mM where given
Excerpt: Erythroid cells were obtained, as described in Example 1, from a normal subject and cultured on semi-solid medium in the presence of a maximal amount of erythroid growth factors including IL-6, GM-CSF, SCF and EPO. Erythroid proliferation in the presence of these factors is expected to be maximal and, therefore, any increases observed would be significant.

fetal globin [10] = experiment: Proportion of fetal globin-expressing cells in culture, fluorescent antibodies, sickle cell patient; type: cell-based, human; details: 0.2 mM, 14 days, controls 40.7%
Description: In a fourth experiment, erythroid cells were obtained from a sickle cell patient. These cells were established in culture both with and without test a variety of test compounds. Cultures were incubated for 14 days in methylcellulose media with maximal concentrations of all hematopoietic growth factors (GM-CSF, SCF, EPO). Colonies were analyzed using fluorescent monoclonal antibodies against fetal globin to determine the proportion of erythroid cells that expressed fetal globin.

[11] = DNA fragmentation assays (cell viability); type: cell-based; details: pulsed administration
Excerpt: Normal cell viability, the viability of an untransformed or uninfected cell, can be determined from analyzing the effects of the composition on one or more biological processes of the cell. Detrimental interference with one or more of these cellular processes becomes significant when the process becomes abnormal. Examples of quantitatable and qualifiable biological processes include the processes of cell division, protein synthesis, nucleic acid (DNA or RNA) synthesis, nucleic acid (principally DNA) fragmentation and apoptosis. Others processes include specific enzyme activities, the activities of the cellular transportation systems such as the transportation of amino acids by system A (neutral), system B (acidic) or system C (basic), and the expression of a cell surface protein. […] Abnormal cell division, for example, can be mitosis which occurs too rapidly, as in a malignancy, or unstably, resulting in programmed cell death or apoptosis, detected by increased DNA degradation. The determination of abnormal cell viability can be made on comparison with untreated control cells. Compositions preferably increase normal cell viability. Increased cell viability can be determined by those of ordinary skill in the art using, for example, DNA fragmentation analysis. […] Determinations of increased or decreased viability can also be concluded from an analysis of the results of multiple different assays. Where multiple tests provide conflicting results, accurate conclusions can still be drawn by those of ordinary skill based upon the cell type, the correctness or correlation of the tests with actual conditions and the type of composition.
Patients with blood disorders are typically quite infirm with, for example, iron damaged organs and systems. Most treatments further tax the patient's already frail health in an effort to combat the disorder.

Compound: CC(=O)O [acetate]
- hemoglobin synthesis (Friend leukemia cells): induced hemoglobin synthesis

Compound: CCCC(=O)O [butyrate]
- apoptosis, red stain of fragmented DNA ([1]; after high-dose): red staining of most cells
- apoptosis, red stain of fragmented DNA ([1]; after low-dose pulse therapy): no red-staining erythroblasts are observed
- total hemoglobin ([2]; after 4 months of continuous weekly treatment): 7.5-8.4 gm/dl
- total hemoglobin, peak ([2]; continuous therapy, baseline 5.6 grams/dl): 9.9 gm/dl
- total hemoglobin, plateau ([2]; continuous therapy, for 2 months after peak): 8.0-8.8 gm/dl
- non-α globin to α globin ratio [3]: 0.77
- total Hgb reached ([4]; after change to pulse therapy): 9.6 gm/dl
- non-α to α-globin chain ratios ([4]; weekly butyrate, improved from 0.5): 0.85
- rise in total hemoglobin ([4]; weekly butyrate, then plateaued): 1-1.5 gram/dl

Compound: CC(C)C(=O)O [isobutyrate]
- hemoglobin synthesis (Friend leukemia cells): induced hemoglobin synthesis

Compound: O=C(O)CCc1ccccc1 [dihydrocinnamic acid]
- platelet counts after treatment [5]: 767,000

Compound: Nc1ncn([C@@H]2O[C@H](CO)[C@@H](O)[C@H]2O)c(=O)n1 [AZA, 5-azacytidine]
- increase in γ globin mRNA of bone marrow cells (γ globin mRNA): five- to seven-fold

Compound: CCC(=O)O [propionate]
- ability to increase fetal globin expression [6]: most effective
- hemoglobin synthesis (Friend leukemia cells): induced hemoglobin synthesis

Compound: O=C(O)COc1ccccc1 [phenoxyacetic acid]
- total hemoglobin after treatment ([7]; continuous, 500 mg/kg/day daily over 8 hours, from 7.0): 6.9 gram/dl
- total hemoglobin after treatment ([7]; continuous, 1000 mg/kg/day, 24 hours per day for 5 days, declined from 6.8): 4.5
- total hemoglobin after treatment ([7]; pulse, 2 oral doses per week, 500 mg/kg on days 1 and 4, in one week, from 6.9): 7.6 gram/dl
- increase in fetal globin over controls (fetal globin [8]): 34%
- proliferation of colonies (human fetal liver cells): increased proliferation of colonies
- system A transport of amino acids [9]: do not significantly alter system A transport of amino acids
- amino acid (MeAIB) uptake / transport ([9]; 2.0 mM, relative to untreated fetal liver erythroid cells): did not inhibit amino acid transport
- Bfu-e growth (Bfu-e): further increase Bfu-e growth
- Increase in γ-Globin Expressing Cells (fetal globin [10]): 54.6%
- DNA fragmentation in fragmentation assays [11]: reduce DNA fragmentation
